Data on one compound can be found in ChEMBL document CHEMBL1149442, “Dual binding mode of a novel series of DHODH inhibitors” (J Med Chem, 2006).

The target in the test is Dihydroorotate dehydrogenase (quinone), mitochondrial (Homo sapiens, UniProt Q02127). The experiment in a line: Inhibitory activity against human DHODH.

Broadly, the IC50 is the concentration needed to halve the response being measured. A high value points to weaker potency in that assay.

Molecules are shown by their SMILES.

Dihydroorotate dehydrogenase (quinone), mitochondrial, sequence (Q02127 whole entry): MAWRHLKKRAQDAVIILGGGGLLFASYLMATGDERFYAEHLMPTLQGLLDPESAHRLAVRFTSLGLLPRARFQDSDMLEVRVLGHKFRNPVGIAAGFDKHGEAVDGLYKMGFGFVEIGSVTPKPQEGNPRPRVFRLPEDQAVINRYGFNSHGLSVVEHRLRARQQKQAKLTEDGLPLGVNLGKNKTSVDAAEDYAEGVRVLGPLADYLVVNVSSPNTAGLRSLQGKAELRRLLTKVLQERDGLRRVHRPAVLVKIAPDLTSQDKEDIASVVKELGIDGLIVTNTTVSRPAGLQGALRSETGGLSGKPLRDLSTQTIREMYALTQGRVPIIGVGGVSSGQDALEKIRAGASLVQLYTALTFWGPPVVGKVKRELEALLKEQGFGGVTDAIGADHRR

The compound `O=C(Nc1c(F)cc(-c2cccc(OC(F)(F)F)c2)cc1F)c1ccsc1C(=O)O` returned an IC50 of 2 nM.
